Read-outs that look alike come from different tables or passages of the source. Positions of bridges follow the written chain, without caps; N, C: chain ends. Residues, ends and D or L forms follow the SMILES beside them.
Experiments:
Assay in all cases: cell-based
hNav1.7 = hNav1.7 (Homo sapiens, UniProt Q15858); format: cell-based
hNav1.5 = hNav1.5 (Homo sapiens, UniProt Q14524)
hNav1.3 = hNav1.3 (Homo sapiens, UniProt Q9NY46); conditions: IonWorks Quattro, read-out: IWQ Use Nav1.3
[1] = IonWorks Quattro, clamped to −110 mV, depolarized to −10 mV, 5 min after compound, n=2, read-out: IWQ Use Nav1.7
[2] = IonWorks Quattro, clamped to −110 mV, depolarized to −10 mV, 5 min after compound, n=2, read-out: IWQ Use Nav1.5
[3] = clamped to −110 mV, depolarized to −10 mV, 5 min after compound, n=2
[4] = IonWorks Quattro, use-dependent block, hNav1.7, read-out: IWQ Use Nav1.7
[5] = IonWorks Quattro, use-dependent block, hNav1.5, read-out: IWQ Use Nav1.5
[6] = IonWorks Quattro, use-dependent protocol, hNav1.5, read-out: IWQ Use Nav1.5
[7] = use-dependent protocol, hNav1.3

Sequence of hNav1.3 (Q9NY46 whole entry, looked up): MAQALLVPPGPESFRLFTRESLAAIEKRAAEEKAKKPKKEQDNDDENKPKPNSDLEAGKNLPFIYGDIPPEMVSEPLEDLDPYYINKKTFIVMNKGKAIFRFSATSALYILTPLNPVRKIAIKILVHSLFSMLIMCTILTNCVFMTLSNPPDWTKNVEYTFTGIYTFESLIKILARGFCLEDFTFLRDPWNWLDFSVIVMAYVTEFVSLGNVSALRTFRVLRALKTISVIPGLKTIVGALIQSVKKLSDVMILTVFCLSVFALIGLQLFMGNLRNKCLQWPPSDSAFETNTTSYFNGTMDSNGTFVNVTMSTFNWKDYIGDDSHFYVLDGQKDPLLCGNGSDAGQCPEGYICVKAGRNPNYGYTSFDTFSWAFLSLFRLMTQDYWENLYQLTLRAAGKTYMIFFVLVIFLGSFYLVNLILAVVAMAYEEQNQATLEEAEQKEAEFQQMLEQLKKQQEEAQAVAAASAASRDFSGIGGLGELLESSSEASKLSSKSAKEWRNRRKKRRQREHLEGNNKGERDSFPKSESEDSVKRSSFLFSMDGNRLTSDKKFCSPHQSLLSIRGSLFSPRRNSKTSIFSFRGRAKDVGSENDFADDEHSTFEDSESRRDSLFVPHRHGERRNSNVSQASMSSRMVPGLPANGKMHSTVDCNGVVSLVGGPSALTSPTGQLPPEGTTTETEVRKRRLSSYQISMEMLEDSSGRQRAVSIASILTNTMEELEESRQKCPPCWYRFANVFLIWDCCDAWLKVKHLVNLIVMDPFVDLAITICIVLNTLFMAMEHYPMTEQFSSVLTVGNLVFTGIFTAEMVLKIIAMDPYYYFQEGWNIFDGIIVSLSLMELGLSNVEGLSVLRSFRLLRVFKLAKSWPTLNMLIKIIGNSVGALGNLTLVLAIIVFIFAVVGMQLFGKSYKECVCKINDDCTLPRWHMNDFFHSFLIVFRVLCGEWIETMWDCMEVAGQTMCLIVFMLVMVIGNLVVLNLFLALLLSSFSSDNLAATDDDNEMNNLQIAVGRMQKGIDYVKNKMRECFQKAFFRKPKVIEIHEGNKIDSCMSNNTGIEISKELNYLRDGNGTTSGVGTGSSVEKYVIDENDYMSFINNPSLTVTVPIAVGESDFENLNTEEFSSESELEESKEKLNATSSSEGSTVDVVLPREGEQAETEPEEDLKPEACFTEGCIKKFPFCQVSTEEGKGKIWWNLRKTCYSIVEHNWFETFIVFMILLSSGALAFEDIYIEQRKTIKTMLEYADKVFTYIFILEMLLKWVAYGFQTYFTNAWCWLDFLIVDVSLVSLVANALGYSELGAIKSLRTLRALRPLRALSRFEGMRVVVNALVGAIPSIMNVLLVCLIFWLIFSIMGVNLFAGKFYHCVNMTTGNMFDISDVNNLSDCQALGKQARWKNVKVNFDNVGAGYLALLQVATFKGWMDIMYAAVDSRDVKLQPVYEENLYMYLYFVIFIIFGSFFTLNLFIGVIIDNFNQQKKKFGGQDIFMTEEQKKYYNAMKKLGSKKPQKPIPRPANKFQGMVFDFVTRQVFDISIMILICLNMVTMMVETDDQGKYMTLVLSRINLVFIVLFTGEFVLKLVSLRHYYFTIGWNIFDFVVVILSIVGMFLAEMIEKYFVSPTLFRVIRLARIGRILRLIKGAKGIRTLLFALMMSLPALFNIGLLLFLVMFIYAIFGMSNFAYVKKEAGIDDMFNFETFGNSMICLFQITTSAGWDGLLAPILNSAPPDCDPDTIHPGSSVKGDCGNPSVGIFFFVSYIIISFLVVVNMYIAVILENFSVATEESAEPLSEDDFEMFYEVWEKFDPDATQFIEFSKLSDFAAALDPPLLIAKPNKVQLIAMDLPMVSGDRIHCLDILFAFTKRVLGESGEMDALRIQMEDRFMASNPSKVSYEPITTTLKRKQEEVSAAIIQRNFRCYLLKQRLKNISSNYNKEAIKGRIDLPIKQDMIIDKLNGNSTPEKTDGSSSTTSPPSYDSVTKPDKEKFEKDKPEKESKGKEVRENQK
Sequence of hNav1.5 (Q14524 whole entry, looked up): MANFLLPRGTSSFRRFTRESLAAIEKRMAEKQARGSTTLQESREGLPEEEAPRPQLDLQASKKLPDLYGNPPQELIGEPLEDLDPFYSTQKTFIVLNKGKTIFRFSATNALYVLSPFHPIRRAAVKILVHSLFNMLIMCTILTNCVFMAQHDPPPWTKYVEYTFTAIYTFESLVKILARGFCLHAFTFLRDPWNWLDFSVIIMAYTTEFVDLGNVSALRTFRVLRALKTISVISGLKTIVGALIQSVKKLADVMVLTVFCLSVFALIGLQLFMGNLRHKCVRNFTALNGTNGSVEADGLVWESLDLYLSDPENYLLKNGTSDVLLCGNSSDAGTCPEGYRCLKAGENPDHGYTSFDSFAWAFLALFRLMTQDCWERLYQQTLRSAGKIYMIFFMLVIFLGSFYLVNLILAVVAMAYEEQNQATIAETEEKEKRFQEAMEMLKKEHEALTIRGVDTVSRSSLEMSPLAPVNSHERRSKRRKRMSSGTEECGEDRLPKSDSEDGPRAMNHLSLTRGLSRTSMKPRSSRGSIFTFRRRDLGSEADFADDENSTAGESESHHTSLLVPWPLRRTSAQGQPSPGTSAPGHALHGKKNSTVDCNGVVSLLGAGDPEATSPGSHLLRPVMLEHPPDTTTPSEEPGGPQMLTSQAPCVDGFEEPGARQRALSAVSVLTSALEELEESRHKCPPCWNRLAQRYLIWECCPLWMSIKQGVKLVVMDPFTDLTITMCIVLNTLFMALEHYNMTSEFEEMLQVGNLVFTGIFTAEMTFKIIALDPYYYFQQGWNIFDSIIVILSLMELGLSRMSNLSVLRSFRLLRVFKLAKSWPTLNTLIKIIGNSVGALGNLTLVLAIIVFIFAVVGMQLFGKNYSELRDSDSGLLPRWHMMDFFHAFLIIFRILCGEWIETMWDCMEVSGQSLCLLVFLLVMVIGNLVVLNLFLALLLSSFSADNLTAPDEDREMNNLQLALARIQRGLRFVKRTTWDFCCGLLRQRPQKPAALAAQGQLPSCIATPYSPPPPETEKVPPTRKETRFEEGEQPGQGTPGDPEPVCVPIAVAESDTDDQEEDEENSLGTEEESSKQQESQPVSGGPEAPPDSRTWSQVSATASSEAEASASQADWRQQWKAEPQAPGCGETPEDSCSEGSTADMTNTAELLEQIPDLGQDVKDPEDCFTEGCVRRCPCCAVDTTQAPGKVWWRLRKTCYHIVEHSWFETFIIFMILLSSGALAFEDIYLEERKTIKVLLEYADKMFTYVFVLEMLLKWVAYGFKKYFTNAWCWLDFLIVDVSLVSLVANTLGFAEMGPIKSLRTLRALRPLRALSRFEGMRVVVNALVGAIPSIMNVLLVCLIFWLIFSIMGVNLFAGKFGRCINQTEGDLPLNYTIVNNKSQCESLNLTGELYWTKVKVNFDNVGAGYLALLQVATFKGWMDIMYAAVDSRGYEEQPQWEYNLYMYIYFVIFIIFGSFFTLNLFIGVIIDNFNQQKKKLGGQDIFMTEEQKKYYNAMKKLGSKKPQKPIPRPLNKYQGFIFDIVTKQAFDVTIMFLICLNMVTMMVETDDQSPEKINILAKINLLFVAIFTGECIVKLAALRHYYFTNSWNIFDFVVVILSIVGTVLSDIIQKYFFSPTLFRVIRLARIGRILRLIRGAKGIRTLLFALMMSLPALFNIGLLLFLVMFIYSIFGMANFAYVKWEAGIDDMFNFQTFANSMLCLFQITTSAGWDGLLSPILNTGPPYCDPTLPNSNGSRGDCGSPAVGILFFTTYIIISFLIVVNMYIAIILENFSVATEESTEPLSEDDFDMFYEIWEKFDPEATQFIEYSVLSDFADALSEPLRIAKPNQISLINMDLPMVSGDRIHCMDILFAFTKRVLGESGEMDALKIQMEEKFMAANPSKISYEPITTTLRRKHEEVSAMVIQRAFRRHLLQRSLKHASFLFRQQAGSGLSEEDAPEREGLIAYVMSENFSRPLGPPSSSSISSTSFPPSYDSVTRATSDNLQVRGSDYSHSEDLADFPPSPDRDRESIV

`CC[C@H](C)[C@@H]1NC(=O)[C@@H]2CSSC[C@@H]3NC(=O)[C@H](C(C)C)NC(=O)[C@H](CC(C)C)NC(=O)[C@H](CC(N)=O)NC(=O)[C@@H]4CCCN4C(=O)[C@H](CCCNC(=N)N)NC(=O)[C@H](CSSC[C@H](NC(=O)[C@@H](N)CC(=O)O)C(=O)N[C@@H](CC(C)C)C(=O)NCC(=O)N[C@@H](Cc4ccccn4)C(=O)N[C@@H](CCSC)C(=O)N[C@@H](CCCNC(=N)N)C(=O)N[C@@H](CCCCN)C(=O)N2)NC(=O)[C@H](CSSC[C@@H](C(=O)N[C@@H](CCCCN)C(=O)N[C@@H](Cc2ccc(O)cc2)C(=O)N[C@H](C(=O)N[C@@H](Cc2ccccc2)C(N)=O)C(C)C)NC(=O)[C@H](Cc2c[nH]c4ccccc24)NC(=O)[C@H](CCCCN)NC(=O)[C@H](Cc2c[nH]cn2)NC(=O)[C@H]([C@@H](C)O)NC(=O)[C@H](CCCNC(=N)N)NC(=O)[C@H](CO)NC3=O)NC(=O)[C@H](CCCCN)NC(=O)[C@H](CC(=O)O)NC(=O)[C@H](CC(N)=O)NC(=O)[C@H](CC(=O)O)NC(=O)[C@@H]2CCCN2C1=O` [SEQ ID NO: 277] gave an IC50 (hNav1.7; [1]) of 2.07 µM, an IC50 (hNav1.5; [2]) of 9.25 µM and an IC50 (hNav1.3; [3]) of 4.58 µM.

With `CC[C@H](C)[C@@H]1NC(=O)[C@@H]2CSSC[C@@H]3NC(=O)[C@H](C(C)C)NC(=O)[C@H](CC(C)C)NC(=O)[C@H](CC(N)=O)NC(=O)[C@@H]4CCCN4C(=O)[C@H](CCCNC(=N)N)NC(=O)[C@H](CSSC[C@H](NC(=O)[C@@H](N)CC(=O)O)C(=O)N[C@@H](CC(C)C)C(=O)NCC(=O)N[C@@H](Cc4ccccc4)C(=O)N(C)[C@@H](Cc4ccccc4)C(=O)N[C@@H](CCCNC(=N)N)C(=O)N[C@@H](CCCCN)C(=O)N2)NC(=O)[C@H](CSSC[C@@H](C(=O)N[C@@H](CCCCN)C(=O)N[C@@H](Cc2ccc(O)cc2)C(=O)N[C@H](C(=O)N[C@@H](Cc2ccccc2)C(N)=O)C(C)C)NC(=O)[C@H](Cc2c[nH]c4ccccc24)NC(=O)[C@H](CCCCN)NC(=O)[C@H](Cc2c[nH]cn2)NC(=O)[C@H]([C@@H](C)O)NC(=O)[C@H](CCCNC(=N)N)NC(=O)[C@H](CO)NC3=O)NC(=O)[C@H](CCCCN)NC(=O)[C@H](CC(=O)O)NC(=O)[C@H](CC(N)=O)NC(=O)[C@H](CC(=O)O)NC(=O)[C@@H]2CCCN2C1=O` [SEQ ID NO: 290] the IC50 (hNav1.7; [1]) was 0.24 µM, the IC50 (hNav1.5; [2]) was 10.6 µM and the IC50 (hNav1.3; [3]) was 0.14 µM.

Molecule `CC[C@H](C)[C@@H]1NC(=O)[C@@H]2CSSC[C@@H]3NC(=O)[C@H](C(C)C)NC(=O)[C@H](CC(C)C)NC(=O)[C@H](CC(N)=O)NC(=O)[C@@H]4CCCN4C(=O)[C@H](CCCNC(=N)N)NC(=O)[C@H](CSSC[C@H](NC(=O)[C@@H](N)CC(=O)O)C(=O)N[C@@H](CC(C)C)C(=O)NCC(=O)N[C@@H](C)C(=O)N[C@@H](CC(C)C)C(=O)N[C@@H](CCCNC(=N)N)C(=O)N[C@@H](CCCCN)C(=O)N2)NC(=O)[C@H](CSSC[C@@H](C(=O)N[C@@H](CCCCN)C(=O)N[C@@H](Cc2ccc(O)cc2)C(=O)N[C@H](C(=O)N[C@@H](Cc2ccccc2)C(=O)O)C(C)C)NC(=O)[C@H](Cc2c[nH]c4ccccc24)NC(=O)[C@H](CO)NC(=O)[C@H](Cc2c[nH]cn2)NC(=O)[C@H]([C@@H](C)O)NC(=O)[C@H](CCCNC(=N)N)NC(=O)[C@H](CO)NC3=O)NC(=O)[C@H](CCCCN)NC(=O)[C@H](CC(=O)O)NC(=O)[C@H](CC(N)=O)NC(=O)[C@H](CC(=O)O)NC(=O)[C@@H]2CCCN2C1=O` [compound 859] (H-DCLGALRKCIPDNDKCCRPNLVCSRTHSWCKYVF-OH; disulfide 2-17, 9-23, 16-30) has an IC50 (hNav1.7; [4]) of over 5 µM, an IC50 (hNav1.5; [5]) of over 5 µM and an IC50 (hNav1.3; use-dependent block, hNav1.3) of over 5 µM.

In the case of `CC[C@H](C)[C@@H]1NC(=O)[C@@H]2CSSC[C@@H]3NC(=O)[C@H](C(C)C)NC(=O)[C@H](CC(C)C)NC(=O)[C@H](CC(N)=O)NC(=O)[C@@H]4CCCN4C(=O)[C@H](CCCNC(=N)N)NC(=O)[C@H](CSSC[C@H](NC(=O)[C@@H](N)CC(=O)O)C(=O)N[C@@H](CC(C)C)C(=O)NCC(=O)N[C@@H](Cc4ccccc4)C(=O)N[C@@H](CCSC)C(=O)N[C@@H](CCCNC(=N)N)C(=O)N[C@@H](CCCCN)C(=O)N2)NC(=O)[C@H](CSSC[C@@H](C(=O)N[C@@H](CCCCN)C(=O)N[C@@H](Cc2ccc(O)cc2)C(=O)N[C@H](C(=O)N[C@@H](Cc2ccccc2)C(N)=O)C(C)C)NC(=O)[C@H](Cc2c[nH]c4ccccc24)NC(=O)[C@H](CCCCN)NC(=O)[C@H](Cc2cnc[nH]2)NC(=O)[C@H]([C@@H](C)O)NC(=O)[C@H](CCCNC(=N)N)NC(=O)[C@H](CO)NC3=O)NC(=O)[C@H](CCCNC(=N)N)NC(=O)[C@H](CC(=O)O)NC(=O)[C@H](CC(N)=O)NC(=O)[C@H](CC(=O)O)NC(=O)[C@@H]2CCCN2C1=O` [compound 68] (H-DCLGFMRKCIPDNDRCCRPNLVCSRTHKWCKYVF-NH2; disulfide 2-17, 9-23, 16-30), the IC50 (hNav1.7; IonWorks Quattro, Use, read-out: IWQ Use Nav1.7) is reported as 0.2 µM, the IC50 (hNav1.5; IWQ Use Nav1.5 (μM)) is reported as 18.1 µM and the IC50 (hNav1.3; Use) is reported as 0.14 µM.

With `CC[C@H](C)[C@@H]1NC(=O)[C@@H]2CSSC[C@@H]3NC(=O)[C@H](C(C)C)NC(=O)[C@H](CC(C)C)NC(=O)[C@H](CC(N)=O)NC(=O)[C@@H]4CCCN4C(=O)[C@H](CCCNC(=N)N)NC(=O)[C@H](CSSC[C@H](NC(=O)[C@@H](N)CC(=O)O)C(=O)N[C@@H](CC(C)C)C(=O)NCC(=O)N[C@H](C)C(=O)N[C@@H](CCSC)C(=O)N[C@@H](CCCNC(=N)N)C(=O)N[C@@H](CCCCN)C(=O)N2)NC(=O)[C@H](CSSC[C@@H](C(=O)N[C@@H](CCCCN)C(=O)N[C@@H](Cc2ccc(O)cc2)C(=O)N[C@H](C(=O)N[C@@H](Cc2ccccc2)C(N)=O)C(C)C)NC(=O)[C@H](Cc2c[nH]c4ccccc24)NC(=O)[C@H](CCCCN)NC(=O)[C@H](Cc2c[nH]cn2)NC(=O)[C@H]([C@@H](C)O)NC(=O)[C@H](CCCNC(=N)N)NC(=O)[C@H](CO)NC3=O)NC(=O)[C@H](CCCCN)NC(=O)[C@H](CC(=O)O)NC(=O)[C@H](CC(N)=O)NC(=O)[C@H](CC(=O)O)NC(=O)[C@@H]2CCCN2C1=O` [compound 647] the IC50 (hNav1.7) was 4.5 µM, the IC50 (hNav1.5; [6]) was over 5 µM and the IC50 (hNav1.3; [7]) was over 5 µM.

With `CC[C@H](C)[C@@H]1NC(=O)[C@@H]2CSSC[C@@H]3NC(=O)[C@H](C(C)C)NC(=O)[C@H](CC(C)C)NC(=O)[C@H](CC(N)=O)NC(=O)[C@@H]4CCCN4C(=O)[C@H](CCCNC(=N)N)NC(=O)[C@H](CSSC[C@H](NC(=O)[C@@H](N)CC(=O)O)C(=O)N[C@@H](CC(C)C)C(=O)NCC(=O)N[C@@H](C)C(=O)N[C@@H](Cc4ccccc4)C(=O)N[C@@H](CCCNC(=N)N)C(=O)N[C@@H](CCCCN)C(=O)N2)NC(=O)[C@H](CSSC[C@@H](C(=O)N[C@@H](CCCCN)C(=O)N[C@@H](Cc2ccc(O)cc2)C(=O)N[C@H](C(=O)N[C@@H](Cc2ccccc2)C(N)=O)C(C)C)NC(=O)[C@H](Cc2c[nH]c4ccccc24)NC(=O)[C@H](CCC(=O)O)NC(=O)[C@H](Cc2c[nH]cn2)NC(=O)[C@H]([C@@H](C)O)NC(=O)[C@H](CCCNC(=N)N)NC(=O)[C@H](CO)NC3=O)NC(=O)[C@H](CCCCN)NC(=O)[C@H](CC(=O)O)NC(=O)[C@H](CC(N)=O)NC(=O)[C@H](CC(=O)O)NC(=O)[C@@H]2CCCN2C1=O` [compound 729] (H-DCLGAFRKCIPDNDKCCRPNLVCSRTHEWCKYVF-NH2; disulfide 2-17, 9-23, 16-30) the IC50 (hNav1.7; [4]) was 1.1 µM, the IC50 (hNav1.5; [5]) was 48 µM and the IC50 (hNav1.3; use-dependent block, hNav1.3) was 1.8 µM.

In the case of `CC[C@H](C)[C@@H]1NC(=O)[C@@H]2CSSC[C@@H]3NC(=O)[C@H](C(C)C)NC(=O)[C@H](CC(C)C)NC(=O)[C@H](CC(N)=O)NC(=O)[C@@H]4CCCN4C(=O)[C@H](CCCNC(=N)N)NC(=O)[C@H](CSSC[C@H](NC(=O)[C@@H](N)CC(=O)O)C(=O)N[C@@H](CC(C)C)C(=O)NCC(=O)N[C@@H](C)C(=O)N[C@@H](Cc4cn(C)c5ccccc45)C(=O)N[C@@H](CCCNC(=N)N)C(=O)N[C@@H](CCCCN)C(=O)N2)NC(=O)[C@H](CSSC[C@@H](C(=O)N[C@@H](CCCCN)C(=O)N[C@@H](Cc2ccc(O)cc2)C(=O)N[C@H](C(=O)N[C@@H](Cc2ccccc2)C(N)=O)C(C)C)NC(=O)[C@H](Cc2c[nH]c4ccccc24)NC(=O)[C@H](CCCCN)NC(=O)[C@H](Cc2c[nH]cn2)NC(=O)[C@H]([C@@H](C)O)NC(=O)[C@H](CCCNC(=N)N)NC(=O)[C@H](CO)NC3=O)NC(=O)[C@H](CCCCN)NC(=O)[C@H](CC(=O)O)NC(=O)[C@H](CC(N)=O)NC(=O)[C@H](CC(=O)O)NC(=O)[C@@H]2CCCN2C1=O` [compound 699], the IC50 (hNav1.7; IonWorks Quattro, use-dependent protocol, hNav1.7, read-out: IWQ Use Nav1.7) is reported as 0.34 µM, the IC50 (hNav1.5; [6]) is reported as over 5 µM and the IC50 (hNav1.3; [7]) is reported as 0.32 µM.
